Experiment [1] deals with Gastrin-releasing peptide receptor (Homo sapiens) (UniProt P30550).
Experiment [2] has as its target T1, Bombesin receptor subtype-3 (Homo sapiens, UniProt P32247).
T1 sequence (P32247 whole entry): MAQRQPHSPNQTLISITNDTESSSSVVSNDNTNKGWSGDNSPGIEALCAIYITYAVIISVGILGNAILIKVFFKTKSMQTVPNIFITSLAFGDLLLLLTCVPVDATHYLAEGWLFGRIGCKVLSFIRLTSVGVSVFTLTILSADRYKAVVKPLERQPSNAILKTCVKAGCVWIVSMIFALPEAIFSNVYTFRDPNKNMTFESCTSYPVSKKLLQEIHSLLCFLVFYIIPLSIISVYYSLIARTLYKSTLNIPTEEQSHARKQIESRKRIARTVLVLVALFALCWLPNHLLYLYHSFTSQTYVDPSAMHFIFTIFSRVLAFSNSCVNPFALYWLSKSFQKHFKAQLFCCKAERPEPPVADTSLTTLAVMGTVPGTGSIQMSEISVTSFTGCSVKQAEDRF

Experiment [3] deals with Neuromedin-B receptor (Homo sapiens, UniProt P28336).
Sequence of Neuromedin-B receptor (P28336 whole entry): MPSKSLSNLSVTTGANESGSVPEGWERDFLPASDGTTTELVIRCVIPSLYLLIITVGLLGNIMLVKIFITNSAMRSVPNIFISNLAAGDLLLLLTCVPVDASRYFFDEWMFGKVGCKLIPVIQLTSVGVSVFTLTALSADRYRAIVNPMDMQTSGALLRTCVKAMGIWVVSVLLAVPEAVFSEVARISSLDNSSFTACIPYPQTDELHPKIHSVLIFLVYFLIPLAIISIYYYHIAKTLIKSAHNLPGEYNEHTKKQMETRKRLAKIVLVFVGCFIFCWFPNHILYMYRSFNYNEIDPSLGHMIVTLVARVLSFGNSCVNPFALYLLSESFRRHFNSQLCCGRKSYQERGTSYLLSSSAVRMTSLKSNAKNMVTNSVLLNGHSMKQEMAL
Experiment [4] addresses Gastrin-releasing peptide receptor (Homo sapiens) (UniProt P30550). The source holds these as a separate data set.

Square brackets hold non-standard residues; d marks the D form. Peptide text beside a SMILES is read from it. Nle = CCCC[C@H](N)C(=O)O; βAla = NCCC(=O)O

Sequence of Gastrin-releasing peptide receptor (Homo sapiens) (P30550 whole entry, looked up): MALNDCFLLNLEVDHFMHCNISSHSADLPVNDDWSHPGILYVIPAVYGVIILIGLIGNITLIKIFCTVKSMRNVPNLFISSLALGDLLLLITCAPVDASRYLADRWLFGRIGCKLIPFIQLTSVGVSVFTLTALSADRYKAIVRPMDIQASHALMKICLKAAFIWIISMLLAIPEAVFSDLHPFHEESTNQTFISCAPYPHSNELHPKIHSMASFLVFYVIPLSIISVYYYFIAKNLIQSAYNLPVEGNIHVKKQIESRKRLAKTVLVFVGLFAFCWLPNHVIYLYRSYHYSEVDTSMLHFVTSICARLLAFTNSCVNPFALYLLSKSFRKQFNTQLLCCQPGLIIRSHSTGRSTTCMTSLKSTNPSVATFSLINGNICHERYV

Broadly, the Ki is a dissociation constant, usually derived from enzyme kinetics or from competition with a known ligand. For `CCCC[C@H](NC(=O)[C@H](Cc1ccccc1)NC(=O)[C@H](Cc1cnc[nH]1)NC(=O)C[C@H](NC(=O)[C@@H](NC(=O)[C@H](C)NC(=O)[C@H](Cc1c[nH]c2ccccc12)NC(=O)[C@H](CCC(N)=O)NC(=O)[C@H](N)Cc1ccc(O)cc1)C(C)C)c1ccccc1)C(N)=O` [CAS_0], the Ki in experiment [1] was 110 nM. This counts as sub-micromolar.

Consider `CSCC[C@H](NC(=O)[C@H](Cc1ccccc1)NC(=O)[C@H](Cc1cnc[nH]1)NC(=O)CNC(=O)[C@@H](NC(=O)[C@H](C)NC(=O)[C@H](Cc1c[nH]c2ccccc12)NC(=O)[C@H](CC(C)C)NC(=O)[C@H](CC(N)=O)NC(=O)CN)[C@@H](C)O)C(N)=O` [NMB], for which the inhibitory constant (Ki) in experiment [2] is over 10000 nM; in experiment [3], 0.55 nM.

`CC(C)[C@H](NC(=O)[C@H](C)NC(=O)[C@H](Cc1c[nH]c2ccccc12)NC(=O)[C@H](CCC(N)=O)NC(=O)[C@H](N)Cc1ccc(O)cc1)C(=O)NCCC(=O)N[C@@H](Cc1cnc[nH]1)C(=O)N[C@@H](Cc1ccccc1)C(=O)NC[C@H](N)C(N)=O` [NSC_0]: the Ki in experiment [1] was 85 nM; in experiment [2] it was 2400 nM; in experiment [3] it was over 10000 nM.

Regarding `CCCC[C@H](NC(=O)[C@H](Cc1ccccc1)NC(=O)[C@H](Cc1c[nH]cn1)NC(=O)C[C@@H](NC(=O)[C@@H](NC(=O)[C@H](C)NC(=O)[C@H](Cc1c[nH]c2ccccc12)NC(=O)[C@H](CCC(N)=O)NC(=O)[C@H](N)Cc1ccc(O)cc1)C(C)C)c1ccc(Cl)cc1)C(N)=O` [NSC_0], the Ki in experiment [1] is 1860 nM; in experiment [2] it was 8.2 nM; in experiment [3], 7200 nM.

For `CCCC[C@H](NC(=O)[C@H](Cc1ccccc1)NC(=O)[C@H](Cc1c[nH]cn1)NC(=O)C[C@@H](NC(=O)[C@@H](NC(=O)[C@H](C)NC(=O)[C@H](Cc1c[nH]c2ccccc12)NC(=O)[C@H](CCC(N)=O)NC(=O)[C@H](N)Cc1ccc(O)cc1)C(C)C)c1ccccc1)C(N)=O` [NSC_0], the Ki in experiment [1] is 151 nM; in experiment [2], 2.8 nM; in experiment [3] it was 2400 nM.

With `CCCC[C@H](NC(=O)[C@H](Cc1ccccc1)NC(=O)[C@H](Cc1cnc[nH]1)NC(=O)C[C@@H](NC(=O)[C@@H](NC(=O)[C@H](C)NC(=O)[C@H](Cc1c[nH]c2ccccc12)NC(=O)[C@H](CCC(N)=O)NC(=O)[C@H](N)Cc1ccc(O)cc1)C(C)C)c1cccc(Cl)c1)C(N)=O` [NSC_0], the figures for the inhibitory constant (Ki) in experiment [1], in experiment [2] and in experiment [3] were 110 nM, 15.8 nM and 831 nM, respectively.

For `CCCC[C@H](NC(=O)[C@H](Cc1ccccc1)NC(=O)[C@H](Cc1cnc[nH]1)NC(=O)C[C@@H](NC(=O)[C@@H](NC(=O)[C@H](C)NC(=O)[C@H](Cc1c[nH]c2ccccc12)NC(=O)[C@H](CCC(N)=O)NC(=O)[C@H](N)Cc1ccc(O)cc1)C(C)C)c1ccccc1Cl)C(N)=O` [NSC_0], the Ki in experiment [1] turned out to be 229 nM; in experiment [2] it was 24 nM; in experiment [3], 6920 nM.

For `CCCC[C@H](NC(=O)[C@H](Cc1ccccc1)NC(=O)[C@H](Cc1cnc[nH]1)NC(=O)C[C@H](NC(=O)[C@@H](NC(=O)[C@H](C)NC(=O)[C@H](Cc1c[nH]c2ccccc12)NC(=O)[C@H](CCC(N)=O)NC(=O)[C@H](N)Cc1ccc(O)cc1)C(C)C)C(=O)NCc1ccccc1)C(N)=O` [NSC_0], the Ki in experiment [4] came to 397 nM; in experiment [2], 708 nM; in experiment [3], 646 nM.

On to `CCCC[C@H](NC(=O)[C@H](Cc1ccccc1)NC(=O)[C@H](Cc1cnc[nH]1)NC(=O)C[C@H](NC(=O)[C@@H](NC(=O)[C@H](C)NC(=O)[C@H](Cc1c[nH]c2ccccc12)NC(=O)[C@H](CCC(N)=O)NC(=O)[C@H](N)Cc1ccc(O)cc1)C(C)C)C(=O)O)C(N)=O` [NSC_0], for which the results for the Ki in experiment [1], in experiment [2] and in experiment [3] were 396 nM, 490 nM and 427 nM, respectively.

Regarding `CCCC[C@H](NC(=O)[C@H](Cc1ccccc1)NC(=O)[C@H](Cc1cnc[nH]1)NC(=O)C[C@H](NC(=O)[C@@H](NC(=O)[C@H](C)NC(=O)[C@H](Cc1c[nH]c2ccccc12)NC(=O)[C@H](CCC(N)=O)NC(=O)[C@H](N)Cc1ccc(O)cc1)C(C)C)c1ccc(Cl)cc1)C(N)=O` [NSC_0], the Ki in experiment [1] is 741 nM; in experiment [2] it was 776 nM; in experiment [3] it was 1950 nM.

As for `CCCC[C@H](NC(=O)[C@H](Cc1ccccc1)NC(=O)[C@H](Cc1cnc[nH]1)NC(=O)C[C@H](NC(=O)[C@@H](NC(=O)[C@H](C)NC(=O)[C@H](Cc1c[nH]c2ccccc12)NC(=O)[C@H](CCC(N)=O)NC(=O)[C@H](N)Cc1ccc(O)cc1)C(C)C)c1cccc(Cl)c1)C(N)=O` [NSC_0], the inhibition constant (Ki) in experiment [1] is 2510 nM; in experiment [2] it was 107 nM; in experiment [3], over 10000 nM.

`CCCC[C@H](NC(=O)[C@H](Cc1ccccc1)NC(=O)[C@H](Cc1cnc[nH]1)NC(=O)C[C@H](NC(=O)[C@@H](NC(=O)[C@H](C)NC(=O)[C@H](Cc1c[nH]c2ccccc12)NC(=O)[C@H](CCC(N)=O)NC(=O)[C@H](N)Cc1ccc(O)cc1)C(C)C)c1ccccc1Cl)C(N)=O` [NSC_0]: the inhibition constant Ki in experiment [1] was 398 nM; in experiment [2], 85 nM; in experiment [3] it was 5890 nM.

For `CCCC[C@H](NC(=O)[C@H](Cc1ccccc1)NC(=O)[C@H](Cc1cnc[nH]1)NC(=O)[C@@H](N)CNC(=O)[C@@H](NC(=O)[C@H](C)NC(=O)[C@H](Cc1c[nH]c2ccccc12)NC(=O)[C@H](CCC(N)=O)NC(=O)[C@H](N)Cc1ccc(O)cc1)C(C)C)C(N)=O` [NSC_0], the results for the Ki in experiment [1], in experiment [2] and in experiment [3] were 1 nM, 2.3 nM and 43 nM, respectively.

With `CCCC[C@H](NC(=O)[C@H](Cc1ccccc1)NC(=O)[C@H](Cc1cnc[nH]1)NC(=O)[C@H](CNC(=O)[C@@H](NC(=O)[C@H](C)NC(=O)[C@H](Cc1c[nH]c2ccccc12)NC(=O)[C@H](CCC(N)=O)NC(=O)[C@H](N)Cc1ccc(O)cc1)C(C)C)NC(=O)c1ccccc1)C(N)=O` [NSC_0], the Ki in experiment [1] came out at 3.1 nM; in experiment [2], 12.3 nM; in experiment [3], 55 nM.

On to `CCCC[C@H](NC(=O)[C@H](Cc1ccccc1)NC(=O)[C@H](Cc1cnc[nH]1)NC(=O)[C@H](CNC(=O)[C@@H](NC(=O)[C@H](C)NC(=O)[C@H](Cc1c[nH]c2ccccc12)NC(=O)[C@H](CCC(N)=O)NC(=O)[C@H](N)Cc1ccc(O)cc1)C(C)C)NC(C)=O)C(N)=O` [NSC_0], for which the Ki in experiment [1] amounted to 1.7 nM; in experiment [2], 15.8 nM; in experiment [3] it was 89 nM.

For `CCCC[C@H](NC(=O)[C@H](Cc1ccccc1)NC(=O)[C@H](Cc1cnc[nH]1)NC(=O)CCNC(=O)[C@@H](NC(=O)[C@H](C)NC(=O)[C@H](Cc1c[nH]c2ccccc12)NC(=O)[C@H](CCC(N)=O)NC(=O)[C@H](N)Cc1ccc(O)cc1)C(C)C)C(N)=O` [NSC_0] (H-[dY]QWAV[βAla]HF[Nle]-NH2), the Ki in experiment [2] was 0.82 nM; in experiment [3] it was 5.9 nM.

(Values after BindingDB's records for doi:10.1124/jpet.104.066761 (National Institutes of Health, 2004).)
